# Measurements: PMC10156173, “GUN4 appeared early in cyanobacterial evolution” (PNAS Nexus, 2023)
# Tests used:
# [1] = target: T1, CrGUN4 (Chlamydomonas GUN4) (Chlamydomonas reinhardtii, UniProt A8I5N5); experiment: absorption spectrum of purified protein co-expressed with PCB biosynthesis in E. coli; type: binding; conditions: TKKG buffer (25 mM TES-KOH pH 7.8, 100 mM KCl, 10% glycerol); peaks at 368 and 674 nm
# T1 construct: gene CHLRE_05g246800v5; in-frame His-tagged fusion in pET28a; expressed in E. coli C41 with pKT271 (PCB biosynthesis); Ni-NTA purified
# [2] = target: T2, CrGUN4 (Chlamydomonas GUN4) (Chlamydomonas reinhardtii, UniProt A8I5N5, N219G); experiment: as above; conditions: TKKG buffer (25 mM TES-KOH pH 7.8, 100 mM KCl, 10% glycerol); no PCB binding detected
# T2 construct: gene CHLRE_05g246800v5; in-frame His-tagged fusion in pET28a; expressed in E. coli C41 with pKT271 (PCB biosynthesis); Ni-NTA purified
# T2 sequence (A8I5N5 entry or part of it N219G): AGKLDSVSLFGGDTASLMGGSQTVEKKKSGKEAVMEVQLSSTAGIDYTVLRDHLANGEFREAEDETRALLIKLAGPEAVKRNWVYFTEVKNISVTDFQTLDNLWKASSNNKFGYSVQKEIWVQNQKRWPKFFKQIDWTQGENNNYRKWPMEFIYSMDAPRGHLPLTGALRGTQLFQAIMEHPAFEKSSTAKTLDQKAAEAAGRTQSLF
# T1 sequence (A8I5N5 entry or part of it): as the sequence (A8I5N5 entry or part of it N219G) above, with G167N counted along it
compound,measurement,setting,value
CC=C1C(=CC2=NC(=Cc3[nH]c(C=C4NC(=O)C(CC)=C4C)c(C)c3CCC(=O)O)C(CCC(=O)O)=C2C)NC(=O)[C@@H]1C [PCB],absorption spectrum of purified protein co-expressed with PCB biosynthesis in E.,[1],Wild-type CrGUN4 contains a small amount of bilin as shown by characteristic peaks
same,bilin absorbance peaks (368 and 674 nm),[2],these peaks are absent in the N219G variant
